Reference: article PMC9481151, “Discovery of new symmetrical and asymmetrical nitrile-containing 1,4-dihydropyridine derivatives as dual kinases and P-glycoprotein inhibitors: synthesis, in vitro assays, and in silico studies” (Journal of Enzyme Inhibition and Medicinal Chemistry, 2022)
“And” between values parts separate entries of the source, which are not always exact repeats. Identical values can stand only once.

Tests used:
RPMI-8226 = test: NCI single dose (10 µM) SRB screen; type: cell-based, human; conditions: leukaemia, 48 h
CCRF-CEM = test: NCI single dose (10 µM) SRB screen; type: cell-based, human; conditions: leukaemia, 48 h
NCI-H226 = test: NCI single dose (10 µM) SRB screen; type: cell-based, human; conditions: non-small cell lung cancer, 48 h
COLO 205 = test: NCI single dose (10 µM) SRB screen; type: cell-based, human; conditions: colon cancer, 48 h
SNB-19 = test: NCI single dose (10 µM) SRB screen; type: cell-based, human; conditions: CNS cancer, 48 h
K-562 = test: NCI single dose (10 µM) SRB screen; type: cell-based, human; conditions: leukaemia, 48 h
ACHN = test: NCI single dose (10 µM) SRB screen; type: cell-based, human; conditions: renal cancer, 48 h
PC-3 = test: NCI single dose (10 µM) SRB screen; type: cell-based, human; conditions: prostate cancer, 48 h
UO-31 = test: NCI single dose (10 µM) SRB screen; type: cell-based, human; conditions: renal cancer, 48 h
NCI-H322M = test: NCI single dose (10 µM) SRB screen; type: cell-based; conditions: non-small cell lung cancer, 48 h
T-47D = test: NCI single dose (10 µM) SRB screen; type: cell-based, human; conditions: breast cancer, 48 h
HCT-116 = test: NCI single dose (10 µM) SRB screen; type: cell-based, human; conditions: colon cancer, 48 h
SK-MEL-2 = test: NCI single dose (10 µM) SRB screen; type: cell-based, human; conditions: melanoma, 48 h
RXF 393 = test: NCI single dose (10 µM) SRB screen; type: cell-based, human; conditions: renal cancer, 48 h
Pseudomonas aeruginosa = test: Agar well diffusion method
MCF7 = test: NCI single dose (10 µM) SRB screen; type: cell-based, human; conditions: breast cancer, 48 h
786-0 = test: NCI single dose (10 µM) SRB screen; type: cell-based, human; conditions: renal cancer, 48 h
M14 = test: NCI single dose (10 µM) SRB screen; type: cell-based, human; conditions: melanoma, 48 h
Aspergillus flavus = test: Agar well diffusion method
SF-295 = test: NCI single dose (10 µM) SRB screen; type: cell-based, human; conditions: CNS cancer, 48 h
IGROV1 = test: NCI single dose (10 µM) SRB screen; type: cell-based, human; conditions: ovarian cancer, 48 h
HL-60(TB) = test: NCI single dose (10 µM) SRB screen; type: cell-based, human; conditions: leukaemia, 48 h
CAKI-1 = test: NCI single dose (10 µM) SRB screen; type: cell-based, human; conditions: renal cancer, 48 h
Escherichia coli = test: Agar well diffusion method
NCI-H522 = test: NCI single dose (10 µM) SRB screen; type: cell-based, human; conditions: non-small cell lung cancer, 48 h
UACC-62 = test: NCI single dose (10 µM) SRB screen; type: cell-based, human; conditions: melanoma, 48 h
HCC-2998 = test: NCI single dose (10 µM) SRB screen; type: cell-based, human; conditions: colon cancer, 48 h
SK-MEL-28 = test: NCI single dose (10 µM) SRB screen; type: cell-based, human; conditions: melanoma, 48 h
OVCAR-4 = test: NCI single dose (10 µM) SRB screen; type: cell-based, human; conditions: ovarian cancer, 48 h
KM12 = test: NCI single dose (10 µM) SRB screen; type: cell-based, human; conditions: colon cancer, 48 h
SN12C = test: NCI single dose (10 µM) SRB screen; type: cell-based, human; conditions: renal cancer, 48 h
NCI-H460 = test: NCI single dose (10 µM) SRB screen; type: cell-based, human; conditions: non-small cell lung cancer, 48 h
MALME-3M = test: NCI single dose (10 µM) SRB screen; type: cell-based, human; conditions: melanoma, 48 h
Bacillus subtilis = test: Agar well diffusion method
HCT-15 = test: NCI single dose (10 µM) SRB screen; type: cell-based, human; conditions: colon cancer, 48 h
TK-10 = test: NCI single dose (10 µM) SRB screen; type: cell-based, human; conditions: renal cancer, 48 h
OVCAR-5 = test: NCI single dose (10 µM) SRB screen; type: cell-based, human; conditions: ovarian cancer, 48 h
U251 = test: NCI single dose (10 µM) SRB screen; type: cell-based, human; conditions: CNS cancer, 48 h
SR = test: NCI single dose (10 µM) SRB screen; type: cell-based, human; conditions: leukaemia, 48 h
NCI-H23 = test: NCI single dose (10 µM) SRB screen; type: cell-based, human; conditions: non-small cell lung cancer, 48 h
Candida albicans = test: Agar well diffusion method
Staphylococcus aureus = test: Agar well diffusion method
UACC-257 = test: NCI single dose (10 µM) SRB screen; type: cell-based, human; conditions: melanoma, 48 h
OVCAR-3 = test: NCI single dose (10 µM) SRB screen; type: cell-based, human; conditions: ovarian cancer, 48 h
NCI 60 cancer cell lines = test: NCI single dose (10 µM) SRB screen, mean over panel; type: cell-based, human; conditions: mean over 60 cell lines, 48 h
SK-OV-3 = test: NCI single dose (10 µM) SRB screen; type: cell-based, human; conditions: ovarian cancer, 48 h
HS578T = test: NCI single dose (10 µM) SRB screen; type: cell-based, human; conditions: breast cancer, 48 h
SNB-75 = test: NCI single dose (10 µM) SRB screen; type: cell-based, human; conditions: CNS cancer, 48 h
BT-549 = test: NCI single dose (10 µM) SRB screen; type: cell-based, human; conditions: breast cancer, 48 h
HOP-92 = test: NCI single dose (10 µM) SRB screen; type: cell-based, human; conditions: non-small cell lung cancer, 48 h
MDA-MB-468 = test: NCI single dose (10 µM) SRB screen; type: cell-based, human; conditions: breast cancer, 48 h

COC(=O)C1=C(C)NC(C)=C(C(=O)OC(C)C)C1c1cccc(C#N)c1 (racemic) [Compound 2a, (±)-3-Isopropyl 5-methyl 4-(3-cyanophenyl)-2,6-dimethyl-1,4-dihydropyridine-3,5-dicarboxylate]
82.6%: % activity index, P. aeruginosa (Pseudomonas aeruginosa; relative to ciprofloxacin)
88%: % activity index, A. flavus (Aspergillus flavus; relative to clotrimazole)
– (Only GI% ≥ 10 are shown): GI% RPMI-8226 (RPMI-8226) | GI% CCRF-CEM (CCRF-CEM) | GI% NCI-H226 (NCI-H226) | GI% COLO 205 (COLO 205) | GI% SNB-19 (SNB-19) | GI% ACHN (ACHN) | GI% UO-31 (UO-31) | GI% NCI-H322M (NCI-H322M) | GI% T-47D (T-47D) | GI% HCT-116 (HCT-116) | GI% SK-MEL-2 (SK-MEL-2) | GI% RXF 393 (RXF 393) | GI% MCF7 (MCF7) | GI% 786-0 (786-0) | GI% M14 (M14) | GI% SF-295 (SF-295) | GI% IGROV1 (IGROV1) | GI% UACC-62 (UACC-62) | GI% HCC-2998 (HCC-2998) | GI% SK-MEL-28 (SK-MEL-28) | GI% OVCAR-4 (OVCAR-4) | GI% KM12 (KM12) | GI% SN12C (SN12C) | GI% NCI-H460 (NCI-H460) | GI% MALME-3M (MALME-3M) | GI% HCT-15 (HCT-15) | GI% TK-10 (TK-10) | GI% OVCAR-5 (OVCAR-5) | GI% U251 (U251) | GI% SR (SR) | GI% NCI-H23 (NCI-H23) | GI% UACC-257 (UACC-257) | GI% OVCAR-3 (OVCAR-3) | GI% SK-OV-3 (SK-OV-3) | GI% HS578T (HS578T) | GI% SNB-75 (SNB-75) | GI% BT-549 (BT-549) | GI% HOP-92 (HOP-92) | GI% MDA-MB-468 (MDA-MB-468)
11%: GI% CAKI-1 (CAKI-1)
0%: Mean GI% (NCI 60 cancer cell lines)
21 mm: zone of inhibition at 1000 µg/mL (Candida albicans; Candida albicans, 24 h, read-out: Diameter of inhibition zone, C. albicans)
83% and 83.3%: % activity index, S. aureus (Staphylococcus aureus; relative to ciprofloxacin)
53.8%: % activity index, E. coli (Escherichia coli; relative to ciprofloxacin)
17 mm: zone of inhibition at 1000 µg/mL (Bacillus subtilis; Bacillus subtilis, 24 h, read-out: Diameter of inhibition zone, B. subtilis)
23%: GI% HL-60(TB) (HL-60(TB))
77% and 77.8%: % activity index, C. albicans (Candida albicans; relative to clotrimazole)
22 mm: zone of inhibition at 1000 µg/mL (Aspergillus flavus; Aspergillus flavus, 24 h, read-out: Diameter of inhibition zone, A. flavus)
14%: GI% NCI-H522 (NCI-H522)
73% and 73.9%: % activity index, B. subtilis (Bacillus subtilis; relative to ciprofloxacin)
14 mm: zone of inhibition at 1000 µg/mL (Escherichia coli; Escherichia coli, 24 h, read-out: Diameter of inhibition zone, E. coli)
16%: GI% K-562 (K-562) | GI% PC-3 (PC-3)
19 mm: zone of inhibition at 1000 µg/mL (Pseudomonas aeruginosa; Pseudomonas aeruginosa, 24 h, read-out: Diameter of inhibition zone, P. aeruginosa)
20 mm: zone of inhibition at 1000 µg/mL (Staphylococcus aureus; Staphylococcus aureus, 24 h, read-out: Diameter of inhibition zone, S. aureus)
